Data on one molecule can be found in PMC5928890 (Theranostics, 2018).

In the test the target is Aβ(1-42) (Homo sapiens, UniProt P05067). Description: Aggregation inhibition by paper-based ECL assay with [Ru. It is filed as biochemical.
Sequence of Aβ(1-42) (P05067 672-713): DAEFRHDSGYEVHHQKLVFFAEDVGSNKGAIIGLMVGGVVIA

`Nc1c(/N=N/c2ccc(-c3ccc(/N=N/c4cc(S(=O)(=O)O)c5ccccc5c4N)cc3)cc2)cc(S(=O)(=O)O)c2ccccc12` [CR, Congo red] came in with a 50% inhibitory concentration (IC50) of 1070 nM.
